In this assay the test system is S. aureus Smith (ATCC 13709). The experiment in a line: Mouse systemic infection (septicemia) model, S. aureus Smith. The conditions noted are these: Staphylococcus aureus; for responders at 3 mg/kg: read-out: SA Smith septicemia survival IV (3 mg/kg); for responders at 30 mg/kg: read-out: SA Smith septicemia survival PO (30 mg/kg); for ED50: dose that prevents 50% of the mice from death, 48 hours. The assay is classed as in vivo. As to the method: Mouse Systemic Infection Protocol-S. aureus Smith Septicemia
Compounds were screened for antibacterial activity in vivo in a mouse systemic infection (septicemia) model. In the model, CD-1 female mice (18-22 grams) were injected IP with a S. aureus Smith (ATCC 13709) inoculum that results in 0% survival within 24 to 48 hours. The bacterial dose required to achieve this effect was previously established through virulence studies. At one hour post infection, mice received either […] IV or […] PO. Typically, six mice were treated per dose group. Animal survival was assessed and recorded for 48 hours. Percent survival at 48 hours was recorded and PD50 (mg/kg) was determined for each compound tested.

The mark [1] stands for this setting: ATCC13709, iv, 48 h, CD-1 female mice, IV 3 mg/kg one hour post infection, survival at 48 hours.
Where [2] appears, read: ATCC13709, po, 48 h, CD-1 female mice, PO 30 mg/kg one hour post infection, survival at 48 hours.
[3] abbreviates: ATCC13709, CD-1 female mice, PO, read-out: SA Smith septicemia PD50 PO.

Where two headings read alike, the source gives them in different places.

Regarding `CN(C)[C@@H]1C(O)=C(C(N)=O)C(=O)[C@@]2(O)C(O)=C3C(=O)c4c(O)cc(CN5CCOCC5)c(Cl)c4C[C@H]3C[C@@H]12` [Compound S15-13-17], the responders at 3 mg/kg under setting [1] is 100%. Besides, the responders at 30 mg/kg under setting [2] worked out at 67%.

Regarding `CCN(Cc1cc(O)c2c(c1F)C[C@H]1C[C@H]3[C@H](N(C)C)C(O)=C(C(N)=O)C(=O)[C@@]3(O)C(O)=C1C2=O)C(C)(C)CC` [Compound S2-4-33], under setting [1], the responders at 3 mg/kg was 67%. Moreover, the responders at 30 mg/kg under setting [2] was found to be 33%.

Regarding `CC(C)[C@@H](C)NCc1cc(O)c2c(c1Cl)C[C@H]1C[C@H]3[C@H](N(C)C)C(O)=C(C(N)=O)C(=O)[C@@]3(O)C(O)=C1C2=O` [Compound S15-13-8], under setting [1], the responders at 3 mg/kg was determined as 67%. Besides, under setting [2], the responders at 30 mg/kg was 50%.

With `CC(C)CN(C)C(C)(C)c1cc(O)c2c(c1Cl)C[C@H]1C[C@H]3[C@H](N(C)C)C(O)=C(C(N)=O)C(=O)[C@@]3(O)C(O)=C1C2=O` [Compound S27-9-7], under setting [1], the responders at 3 mg/kg is 17%. For the same compound, under setting [2], the responders at 30 mg/kg was found to be 33%.

Turning to `CCN(Cc1cc(O)c2c(c1F)C[C@H]1C[C@H]3[C@H](N(C)C)C(O)=C(C(N)=O)C(=O)[C@@]3(O)C(O)=C1C2=O)CC1CCCC1` [Compound S2-4-62], under setting [1], the responders at 3 mg/kg was determined as 17%. In addition, the responders at 30 mg/kg under setting [2] was 25%.

`CN(C)[C@@H]1C(O)=C(C(N)=O)C(=O)[C@@]2(O)C(O)=C3C(=O)c4c(O)cc(CN(CCF)CC5CC5)c(F)c4C[C@H]3C[C@@H]12` [Compound S1-14-31]: the responders at 3 mg/kg (ATCC13709, iv, 48 h) stood at 0%. Also, the responders at 30 mg/kg (ATCC13709, po, 48 h) was 0%.

Consider `CN(C)c1c(CN2CCCC2(C)C)cc(O)c2c1C[C@H]1C[C@H]3[C@H](N(C)C)C(O)=C(C(N)=O)C(=O)[C@@]3(O)C(O)=C1C2=O` [Compound S16-10-11], for which the responders at 3 mg/kg under setting [1] is 100%. The responders at 30 mg/kg under setting [2] amounted to 100%. Moreover, under setting [3], the ED50 worked out at 10 mg/kg.

Regarding `CN(C)c1c(CN(C)C2(C)CCC2)cc(O)c2c1C[C@H]1C[C@H]3[C@H](N(C)C)C(O)=C(C(N)=O)C(=O)[C@@]3(O)C(O)=C1C2=O` [Compound S16-10-107], the responders at 3 mg/kg under setting [1] turned out to be 100%. In addition, under setting [2], the responders at 30 mg/kg was found to be 100%.

On to `CN(Cc1ccccc1)Cc1cc(O)c2c(c1F)C[C@H]1C[C@H]3[C@H](N(C)C)C(O)=C(C(N)=O)C(=O)[C@@]3(O)C(O)=C1C2=O` [Compound S1-14-46], for which the responders at 3 mg/kg under setting [1] turned out to be 0%. The responders at 30 mg/kg under setting [2] is 0%.

As for `CN(C)c1c(CN2CCCCCC2)cc(O)c2c1C[C@H]1C[C@H]3[C@H](N(C)C)C(O)=C(C(N)=O)C(=O)[C@@]3(O)C(O)=C1C2=O` [Compound S16-10-177], the responders at 3 mg/kg under setting [1] amounted to 100%. Under setting [2], the responders at 30 mg/kg is 100%.

As to `CN(C)[C@@H]1C(O)=C(C(N)=O)C(=O)[C@@]2(O)C(O)=C3C(=O)c4c(O)cc(CN(C)C5(C6CC6)CC5)c(F)c4C[C@H]3C[C@@H]12` [Compound S2-4-60], the responders at 3 mg/kg under setting [1] came to 17%. Further, the responders at 30 mg/kg under setting [2] came to 33%.

For the compound `COc1c(CN2CCCC2(C)C)cc(O)c2c1C[C@H]1C[C@H]3[C@H](N(C)C)C(O)=C(C(N)=O)C(=O)[C@@]3(O)C(O)=C1C2=O` [Compound S24-9-10], the responders at 3 mg/kg under setting [1] is 100%. Besides, the responders at 30 mg/kg under setting [2] was found to be 100%.

Regarding `CCC(C)(C)N(C)Cc1cc(O)c2c(c1OC)C[C@H]1C[C@H]3[C@H](N(C)C)C(O)=C(C(N)=O)C(=O)[C@@]3(O)C(O)=C1C2=O` [Compound S24-9-19], the responders at 3 mg/kg under setting [1] is 100%. Also, under setting [2], the responders at 30 mg/kg turned out to be 100%.

For the compound `CN(C)[C@@H]1C(O)=C(C(N)=O)C(=O)[C@@]2(O)C(O)=C3C(=O)c4c(O)cc(CN5CCCCC5(C)C)c(F)c4C[C@H]3C[C@@H]12` [Compound S6-4-1], the responders at 3 mg/kg under setting [1] came to 100%. Also, under setting [2], the responders at 30 mg/kg was 100%.

For the compound `CN(C)[C@@H]1C(O)=C(C(N)=O)C(=O)[C@@]2(O)C(O)=C3C(=O)c4c(O)cc(CN5CCC6(CC5)CC6)c(F)c4C[C@H]3C[C@@H]12` [Compound S1-14-128], under setting [1], the responders at 3 mg/kg was 100%. For the same compound, under setting [2], the responders at 30 mg/kg came to 100%.

On to `C[C@H]1CCC[C@H](C)N1Cc1cc(O)c2c(c1Cl)C[C@H]1C[C@H]3[C@H](N(C)C)C(O)=C(C(N)=O)C(=O)[C@@]3(O)C(O)=C1C2=O` [Compound S15-13-225], for which the responders at 3 mg/kg under setting [1] amounted to 100%. Moreover, the responders at 30 mg/kg under setting [2] is 100%.

In the case of `CN(C)[C@@H]1C(O)=C(C(N)=O)C(=O)[C@@]2(O)C(O)=C3C(=O)c4c(O)cc(CN5C6CCC5CC6)c(Cl)c4C[C@H]3C[C@@H]12` [Compound S15-13-222], under “ATCC13709, CD-1 female mice, IV 3 mg/kg one hour post infection, survival at 48 hours”, the responders at 3 mg/kg was found to be 100%. Moreover, where the note is “ATCC13709, CD-1 female mice, PO 30 mg/kg one hour post infection, survival at 48 hours”, the responders at 30 mg/kg was 100%.

For `CN(C)[C@@H]1C(O)=C(C(N)=O)C(=O)[C@@]2(O)C(O)=C3C(=O)c4c(O)cc(CN5CCC(C)(C)CC5)c(Cl)c4C[C@H]3C[C@@H]12` [Compound S15-13-16], the responders at 3 mg/kg under setting [1] was 33%. Moreover, the responders at 30 mg/kg under setting [2] was found to be 17%.

In the case of `CC1CCN(Cc2cc(O)c3c(c2Cl)C[C@H]2C[C@H]4[C@H](N(C)C)C(O)=C(C(N)=O)C(=O)[C@@]4(O)C(O)=C2C3=O)CC1` [Compound S15-13-182], the responders at 3 mg/kg under setting [1] was found to be 33%. Besides, the responders at 30 mg/kg under setting [2] came to 67%.

Take `CN(C)[C@@H]1C(O)=C(C(N)=O)C(=O)[C@@]2(O)C(O)=C3C(=O)c4c(O)cc(CN5CCC(C6CC6)CC5)c(F)c4C[C@H]3C[C@@H]12` [Compound S1-14-134]: the responders at 3 mg/kg under setting [1] came to 50%. Besides, the responders at 30 mg/kg under setting [2] amounted to 17%.

For `CCC1(CNCc2cc(O)c3c(c2F)C[C@H]2C[C@H]4[C@H](N(C)C)C(O)=C(C(N)=O)C(=O)[C@@]4(O)C(O)=C2C3=O)CCC1` [Compound S1-14-91], the responders at 3 mg/kg under setting [1] amounted to 17%. In addition, under setting [2], the responders at 30 mg/kg was 60%.

In the case of `CN(C)[C@@H]1C(O)=C(C(N)=O)C(=O)[C@@]2(O)C(O)=C3C(=O)c4c(O)cc(CN5CCCCC5)c(C(F)(F)F)c4C[C@H]3C[C@@H]12` [Compound S25-11-68], the responders at 3 mg/kg under setting [1] was 50%. Also, the responders at 30 mg/kg under setting [2] was determined as 83%.

For the compound `CN(C)[C@@H]1C(O)=C(C(N)=O)C(=O)[C@@]2(O)C(O)=C3C(=O)c4c(O)cc(CN(CC5CC5)C5CC5)c(F)c4C[C@H]3C[C@@H]12` [Compound S2-4-41], under setting [1], the responders at 3 mg/kg turned out to be 0%. In addition, the responders at 30 mg/kg under setting [2] turned out to be 0%.

Consider `CN(C)[C@@H]1C(O)=C(C(N)=O)C(=O)[C@@]2(O)C(O)=C3C(=O)c4c(cc(F)c(CNCC(C)(C)C)c4O)C[C@H]3C[C@@H]12` [Compound S19-8-1], for which the responders at 3 mg/kg under setting [1] was found to be 100%. Further, the responders at 30 mg/kg under setting [2] came out at 100%. Also, the ED50 stood at 0.36 mg/kg (ATCC13709, CD-1 female mice, IV, read-out: SA Smith septicemia PD50 IV) and 12.2 mg/kg under setting [3].

Take `CN(C)[C@@H]1C(O)=C(C(N)=O)C(=O)[C@@]2(O)C(O)=C3C(=O)c4c(O)cc(CNC5C6CC7CC(C6)CC5C7)c(F)c4C[C@H]3C[C@@H]12` (some centres unmarked) [Compound S1-14-28]: under setting [1], the responders at 3 mg/kg was determined as 33%. In addition, the responders at 30 mg/kg under setting [2] was 17%.

On to `CN(C)[C@@H]1C(O)=C(C(N)=O)C(=O)[C@@]2(O)C(O)=C3C(=O)c4c(O)cc(CN[C@H]5CC6CCC5C6)c(C(F)(F)F)c4C[C@H]3C[C@@H]12` (some centres unmarked) [Compound S25-11-12], for which the responders at 3 mg/kg under setting [1] came to 0%. Further, the responders at 30 mg/kg under setting [2] is 20%.

For the compound `CN(C)[C@@H]1C(O)=C(C(N)=O)C(=O)[C@@]2(O)C(O)=C3C(=O)c4c(O)cc(CNC56CC7CC(CC(C7)C5)C6)c(F)c4C[C@H]3C[C@@H]12` [Compound S1-14-4], under setting [1], the responders at 3 mg/kg came to 100%. Under setting [2], the responders at 30 mg/kg amounted to 0%.

In the case of `CCN(Cc1cc(O)c2c(c1F)C[C@H]1C[C@H]3[C@H](N(C)C)C(O)=C(C(N)=O)C(=O)[C@@]3(O)C(O)=C1C2=O)C1(C)CCCC1` [Compound S1-14-73], the responders at 3 mg/kg under setting [1] was 50%. Also, the responders at 30 mg/kg under setting [2] is 75%.

`C[C@H]1CCCN1Cc1cc(O)c2c(c1C(F)(F)F)C[C@H]1C[C@H]3[C@H](N(C)C)C(O)=C(C(N)=O)C(=O)[C@@]3(O)C(O)=C1C2=O` [Compound S25-11-48]: the responders at 3 mg/kg under setting [1] turned out to be 100%. Also, the responders at 30 mg/kg under setting [2] turned out to be 100%.

Turning to `CN(C)[C@@H]1C(O)=C(C(N)=O)C(=O)[C@@]2(O)C(O)=C3C(=O)c4c(O)cc(C(C)(C)N(C)CC5CCCC5)c(F)c4C[C@H]3C[C@@H]12` [Compound S27-9-5], the responders at 3 mg/kg under setting [1] is 83%. Besides, under setting [2], the responders at 30 mg/kg came out at 67%.

For `CN(C)[C@@H]1C(O)=C(C(N)=O)C(=O)[C@@]2(O)C(O)=C3C(=O)c4c(O)cc(CN[C@@H]5CC6CCC5C6)c(Cl)c4C[C@H]3C[C@@H]12` (some centres unmarked) [Compound S15-13-23], under setting [1], the responders at 3 mg/kg amounted to 83%. In addition, the responders at 30 mg/kg under setting [2] stood at 50%.

These data come from patent publication US9315451B2, “Tetracycline compounds” (priority 2009, dated 2016).
